The source made the active and inactive calls. The rule behind the calls is not given here.
Tests used:
[1] = tested on: RAW264.7; experiment: Immunomodulatory activity in mouse RAW264.7 cells assessed as TNF alpha production at 1 to 1000 ng/ml after 18 hrs by ELISA method; type: functional, cell-based
[2] = tested on: RAW264.7; experiment: Immunomodulatory activity in mouse RAW264.7 cells assessed as increase in TNF alpha production after 18 hrs by ELISA method (reference value: 4.4 +/- 3.4 pg/ml); type: functional
[3] = tested on: RAW264.7; experiment: Immunomodulatory activity in mouse RAW264.7 cells assessed as TNF alpha production at 1 to 1000 ng/ml after 18 hrs by ELISA method (reference value: 4.4 +/- 3.4 pg/ml); type: functional

With C[C@@H](O)[C@@H]1O[C@@H](OC[C@@H](O)[C@@H]2O[C@@H](Oc3ccc([N+](=O)[O-])cc3)[C@H](O)[C@H]2O)[C@H](O)[C@H]1O the Activity [1] was “inactive”.

For CCCCCCCCO[C@@H]1O[C@@H]([C@H](O)CO)[C@H](O)[C@H]1O[C@@H]1O[C@@H]([C@H](O)CO)[C@H](O)[C@H]1O[C@H]1O[C@H]([C@H](O)CO)[C@@H](O)[C@@H]1O[C@@H]1O[C@@H]([C@@H](O)CO)[C@H](O)[C@H]1O[C@H]1O[C@H]([C@@H](O)CO)[C@@H](O)[C@@H]1O (stereo in doubt), the Activity [1] was “Active”.

With CCCCCCCCO[C@@H]1O[C@@H]([C@H](O)CO[C@@H]2O[C@@H]([C@H](O)CO)[C@H](O)[C@H]2O)[C@H](O)[C@H]1O the Activity [1] was “Active”.

O=[N+]([O-])c1ccc(O[C@@H]2O[C@@H]([C@H](O)CO)[C@H](O)[C@H]2O[C@@H]2O[C@@H]([C@H](O)CO)[C@H](O)[C@H]2O)cc1 was tested, and the Activity [1] was “Active”.

In the case of C[C@@H](O)[C@@H]1O[C@@H](O[C@H](CO)[C@@H]2O[C@@H](Oc3ccc([N+](=O)[O-])cc3)[C@H](O)[C@H]2O)[C@H](O)[C@H]1O, the Activity [1] is reported as “inactive”.

CCCCCCCCO[C@@H]1O[C@@H]([C@H](O)CF)[C@H](O)[C@H]1O[C@@H]1O[C@@H]([C@H](O)CF)[C@H](O)[C@H]1O was tested, and the Activity [2] was 600 pg/mL.

For CCCCCCCCO[C@@H]1O[C@@H]([C@H](O)CO)[C@H](O)[C@H]1O[C@H]1O[C@H]([C@@H](O)CO)[C@@H](O)[C@@H]1O[C@@H]1O[C@@H]([C@@H](O)CO)[C@H](O)[C@H]1O[C@@H]1O[C@@H]([C@@H](O)CO)[C@H](O)[C@H]1O (stereo in doubt), the Activity [1] was “Active”.

With O=[N+]([O-])c1ccc(O[C@@H]2O[C@@H]([C@H](O)CO[C@@H]3O[C@@H]([C@H](O)CF)[C@H](O)[C@H]3O)[C@H](O)[C@H]2O)cc1 the Activity [1] was “inactive”.

O=[N+]([O-])c1ccc(O[C@@H]2O[C@@H]([C@H](O)CF)[C@H](O)[C@H]2O[C@@H]2O[C@@H]([C@H](O)CF)[C@H](O)[C@H]2O)cc1 showed an Activity [3] greater than 200 pg/mL.

In the case of CCCCCCCCO[C@H]1O[C@H]([C@H](C)O)[C@@H](O)[C@@H]1O[C@@H]1O[C@@H]([C@@H](O)CO)[C@H](O)[C@H]1O[C@@H]1O[C@@H]([C@@H](O)CO)[C@H](O)[C@H]1O (stereo in doubt), the Activity [1] is reported as “Active”.

For C[C@@H](O)[C@@H]1O[C@@H](O[C@H]2[C@H](Oc3ccc([N+](=O)[O-])cc3)O[C@@H]([C@H](O)CO)[C@@H]2O)[C@H](O)[C@H]1O, the Activity [1] was “inactive”.

With CCCCCCCCO[C@H]1O[C@H]([C@@H](O)CO)[C@@H](O)[C@@H]1O[C@@H]1O[C@@H]([C@@H](O)CO)[C@H](O)[C@H]1O[C@@H]1O[C@@H]([C@@H](O)CO)[C@H](O)[C@H]1O (stereo in doubt) the Activity [1] was “Active”.

For CCCCCCCCO[C@H]1O[C@H]([C@@H](O)CF)[C@@H](O)[C@@H]1O[C@@H]1O[C@@H]([C@@H](O)CO)[C@H](O)[C@H]1O[C@@H]1O[C@@H]([C@@H](O)CO)[C@H](O)[C@H]1O (stereo in doubt), the Activity [1] was “Active”.

O=[N+]([O-])c1ccc(O[C@@H]2O[C@@H]([C@H](O)CO)[C@H](O)[C@H]2O[C@@H]2O[C@@H]([C@H](O)CF)[C@H](O)[C@H]2O)cc1 was tested, and the Activity [1] was “inactive”.

In the case of C[C@@H](O)[C@@H]1O[C@@H](O[C@H]2[C@H](O[C@H]3[C@H](Oc4ccc([N+](=O)[O-])cc4)O[C@@H]([C@H](O)CO)[C@@H]3O)O[C@@H]([C@@H](C)O)[C@@H]2O)[C@H](O)[C@H]1O, the Activity [1] is reported as “Active”.

C[C@@H](O)[C@@H]1O[C@@H](O[C@@H]2[C@@H](O)[C@H](Oc3ccc([N+](=O)[O-])cc3)O[C@H]2[C@H](O)CO)[C@H](O)[C@H]1O was tested, and the Activity [1] was “inactive”.

With CCCCCCCCO[C@@H]1O[C@@H]([C@H](O)CO)[C@H](O)[C@H]1O[C@@H]1O[C@@H]([C@H](O)CO)[C@H](O)[C@H]1O the Activity [1] was “Active”.

With O=[N+]([O-])c1ccc(O[C@@H]2O[C@@H]([C@H](O)CO)[C@H](O)[C@H]2O[C@@H]2O[C@@H]([C@H](O)CO)[C@H](O)[C@H]2O[C@@H]2O[C@@H]([C@H](O)CO)[C@H](O)[C@H]2O)cc1 the Activity [1] was “Active”.

Source: ChEMBL document CHEMBL3779844, “Biocatalyzed synthesis of difuranosides and their ability to trigger production of TNF-α” (2016)
